Some test systems named below: OVCAR-5 ovarian; SN12C renal; LXFL 529 NSCLC; DMS 273 small cell lung; XF 498 CNS; M19-MEL melanoma; HCC-2998 colon; KM20L2 colon; DLD-1 colon; SK-MEL-5 melanoma; OVCAR-8 ovarian; UO-31 renal; UACC-62 melanoma; SNB-78 CNS; HOP-18 NSCLC; T-47D breast; HS 578T breast; MCF7 breast.
Holding throughout (experiment): NCI anticancer screen, dose series, 48 h

19 compounds from PubChem BioAssay (NCI) can be followed below.

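Step 1: Grow cells in 96-well plates. Step 2: Expose to compound for 48 hours at 5 concentrations. Step 3: Interpolate endpoints linearly; if unreached, use highest concentration. TGI marks complete inhibition of growth.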 Where only a bound is given, the exact number is not on record here.

Turning to `CC(C)OP(=O)(OC(C)C)/C(Cl)=N/Nc1ccc([N+](=O)[O-])cc1`, the TGI in the assay with OVCAR-5 ovarian, with SN12C renal, in the assay on LXFL 529 NSCLC, with DMS 273 small cell lung, with XF 498 CNS and in the assay on M19-MEL melanoma was above 100 µM each time. Further, the TGI in the assay with HCC-2998 colon, in the assay on KM20L2 colon, in the assay on DLD-1 colon, with SK-MEL-5 melanoma, in the assay on OVCAR-8 ovarian and in the assay with UO-31 renal was above 100 µM each time. Further, the TGI in the assay on UACC-62 melanoma and in the assay with SNB-78 CNS was above 100 µM in each case.

Regarding `COC(=O)CC(NC(=O)OCc1ccccc1)C(C(C)=O)C(=O)OCc1ccccc1` (stereo unspecified), the TGI is above 100 µM in the assay on OVCAR-5 ovarian; above 31.6 µM with SN12C renal; above 31.6 µM with LXFL 529 NSCLC; above 31.6 µM in the assay with HOP-18 NSCLC; above 31.6 µM in the assay on DMS 273 small cell lung; above 31.6 µM in the assay with M19-MEL melanoma. The TGI with KM20L2 colon, with DLD-1 colon, in the assay with SK-MEL-5 melanoma, with OVCAR-8 ovarian, with UO-31 renal and in the assay with UACC-62 melanoma was above 31.6 µM throughout. For the same compound, the TGI in the assay on SNB-78 CNS was above 31.6 µM.

`CCN(CC)c1cccc2c1/C(=N/O)CCCC2`: the TGI in the assay on SN12C renal, in the assay with LXFL 529 NSCLC, in the assay on HOP-18 NSCLC, in the assay with DMS 273 small cell lung, with XF 498 CNS and with M19-MEL melanoma was above 100 µM each time. For the same compound, the TGI with KM20L2 colon, in the assay on SK-MEL-5 melanoma, in the assay with OVCAR-8 ovarian, in the assay with UO-31 renal, with UACC-62 melanoma and in the assay with SNB-78 CNS was above 100 µM in each case.

As to `CC(=O)Nc1c(S(=O)(=O)c2ccccc2)c(C)c(C)n1CCN(C)C`, the TGI in the assay on OVCAR-5 ovarian, in the assay with T-47D breast, in the assay on SN12C renal, with HS 578T breast, in the assay with MCF7 breast and with HCC-2998 colon was above 100 µM each time. The TGI in the assay with SK-MEL-5 melanoma, in the assay on OVCAR-8 ovarian, with UO-31 renal and in the assay on UACC-62 melanoma was above 100 µM each time.

As to `COC(=O)C(N)CCCC(N)C(=O)NC(C)C(=O)NC(CCC(=O)NCCNCCNc1c2ccccc2nc2cccc([N+](=O)[O-])c12)C(N)=O` (stereo unspecified), the TGI with OVCAR-5 ovarian was above 100 µM; in the assay on T-47D breast, 45.8 µM; in the assay on SN12C renal, 39.5 µM; in the assay on HS 578T breast, 38.8 µM; in the assay on MCF7 breast it was 58.5 µM; with HCC-2998 colon, 34.2 µM. Moreover, the TGI with SK-MEL-5 melanoma is 18.1 µM; in the assay with OVCAR-8 ovarian, 42.3 µM; in the assay on UO-31 renal it was 59.4 µM; with UACC-62 melanoma it was 27.1 µM.

Take `COP(=O)(OC)C(=O)N1N(c2ccc([N+](=O)[O-])cc2)C(=O)C(C)NC1(NNc1ccc([N+](=O)[O-])cc1)P(=O)(OC)OC` (stereo unspecified): the TGI with OVCAR-5 ovarian, with SN12C renal, in the assay with LXFL 529 NSCLC, in the assay with DMS 273 small cell lung, in the assay with XF 498 CNS and in the assay with M19-MEL melanoma was above 100 µM throughout. Further, the TGI in the assay on HCC-2998 colon, in the assay with KM20L2 colon, with DLD-1 colon, in the assay on SK-MEL-5 melanoma, with OVCAR-8 ovarian and in the assay with UO-31 renal was above 100 µM in each case. Moreover, in the assay on UACC-62 melanoma, the TGI was above 100 µM.

In the case of `NC1=CN(CCCO)C2=N/C(=C\c3ccccc3)C(=O)N12`, the TGI in the assay on OVCAR-5 ovarian, in the assay on T-47D breast, in the assay with SN12C renal, in the assay on HS 578T breast, with MCF7 breast and in the assay on HCC-2998 colon was above 100 µM in each case. Further, the TGI in the assay with SK-MEL-5 melanoma, with OVCAR-8 ovarian, in the assay on UO-31 renal and with UACC-62 melanoma was above 100 µM throughout.

On to `CC(=O)C1=C(C)N2C(=NC3=C(CCc4ccccc43)C2c2ccc(F)cc2)S1` (stereo unspecified), for which the TGI in the assay on OVCAR-5 ovarian, in the assay with T-47D breast, with SN12C renal, with HS 578T breast, in the assay on MCF7 breast and in the assay with HCC-2998 colon was above 100 µM throughout. The TGI in the assay with SK-MEL-5 melanoma, with OVCAR-8 ovarian, in the assay on UO-31 renal and in the assay on UACC-62 melanoma was above 100 µM each time.

In the case of `COc1ccc(N=N/C(=N/NC(=O)c2ccc(C)cc2)c2ccc(N(CCC#N)CCC#N)cc2OC)cc1`, the TGI with OVCAR-5 ovarian, in the assay with T-47D breast, with SN12C renal, in the assay with HS 578T breast, in the assay on MCF7 breast and in the assay on HCC-2998 colon was above 100 µM throughout. Also, the TGI in the assay with SK-MEL-5 melanoma, with OVCAR-8 ovarian, with UO-31 renal and in the assay with UACC-62 melanoma was above 100 µM in each case.

Take `NNC(=S)N/N=C(\C(=O)Nc1cccc(O)c1)C1C(=O)NC(=S)NC1=O`: the TGI in the assay with OVCAR-5 ovarian, with T-47D breast, with SN12C renal, with HS 578T breast, in the assay on MCF7 breast and in the assay with HCC-2998 colon was above 100 µM each time. Moreover, the TGI in the assay with SK-MEL-5 melanoma, in the assay with OVCAR-8 ovarian, with UO-31 renal and in the assay on UACC-62 melanoma was above 100 µM throughout.

On to `O=C(O[C@@H](/C=C/c1ccccc1)P1(=O)N(Cc2ccccc2)[C@H]2CCCC[C@@H]2N1Cc1ccccc1)c1ccccc1`, for which the TGI was above 100 µM with OVCAR-5 ovarian; 47.2 µM in the assay with T-47D breast; 6.74 µM in the assay on SN12C renal; above 100 µM with HS 578T breast; 6.77 µM in the assay with MCF7 breast; 18.2 µM in the assay with HCC-2998 colon. Besides, the TGI in the assay on SK-MEL-5 melanoma was 3.67 µM; in the assay on OVCAR-8 ovarian it was above 100 µM; in the assay with UO-31 renal, 11.7 µM; with UACC-62 melanoma, 7.47 µM.

For the compound `O=c1oc2ccccc2nc1/C=C(\O)c1ccc(Cl)cc1`, the TGI in the assay on OVCAR-5 ovarian, with T-47D breast, in the assay with SN12C renal, in the assay with HS 578T breast, in the assay with MCF7 breast and in the assay with HCC-2998 colon was above 100 µM throughout. The TGI in the assay on SK-MEL-5 melanoma, with OVCAR-8 ovarian, with UO-31 renal and with UACC-62 melanoma was above 100 µM throughout.

As for `Cc1cc(C)n(CC(Cn2nc(C)cc2C)=C(/C(Cl)=C(/Cl)Nc2ccc([N+](=O)[O-])cc2)[N+](=O)[O-])n1`, the TGI with OVCAR-5 ovarian amounted to 33.2 µM; with T-47D breast, 17.3 µM; in the assay on SN12C renal, 17.6 µM; in the assay with HS 578T breast, 33.2 µM; in the assay on MCF7 breast, 14.3 µM; in the assay on HCC-2998 colon, 11.7 µM. In addition, the TGI in the assay with SK-MEL-5 melanoma stood at 4.97 µM; in the assay on OVCAR-8 ovarian, 14.6 µM; in the assay on UO-31 renal, 6.76 µM; in the assay with UACC-62 melanoma, 15.4 µM.

For the compound `N=C1OC(CN2CCN(c3ccccc3)CC2)CN1C(=S)Nc1ccccc1` (stereo unspecified), the TGI in the assay on OVCAR-5 ovarian, with T-47D breast, with SN12C renal, in the assay on HS 578T breast, in the assay with MCF7 breast and in the assay on HCC-2998 colon was above 100 µM each time. In addition, the TGI in the assay with SK-MEL-5 melanoma, in the assay on OVCAR-8 ovarian, in the assay with UO-31 renal and with UACC-62 melanoma was above 100 µM in each case.

As to `O=C1CSC(/C=C/c2ccccc2)N1c1nc2cc3sc(N4C(=O)CSC4/C=C/c4ccccc4)nc3cc2s1` (stereo unspecified), the TGI with OVCAR-5 ovarian, with T-47D breast, with SN12C renal, in the assay on HS 578T breast, with MCF7 breast and in the assay on HCC-2998 colon was above 100 µM each time. Also, the TGI with SK-MEL-5 melanoma, in the assay on OVCAR-8 ovarian, with UO-31 renal and in the assay with UACC-62 melanoma was above 100 µM throughout.

On to `Nc1nc2c3nc(Nc4ccccc4)sc3nc(=S)n2c2sc(Nc3ccccc3)nc12`, for which the TGI is above 100 µM in the assay on SN12C renal; 29.4 µM with LXFL 529 NSCLC; above 100 µM with HOP-18 NSCLC; above 100 µM with DMS 273 small cell lung; 4.25 µM in the assay with XF 498 CNS; above 100 µM in the assay on M19-MEL melanoma. The TGI in the assay on HCC-2998 colon, in the assay with KM20L2 colon, with DLD-1 colon, in the assay with SK-MEL-5 melanoma, in the assay with OVCAR-8 ovarian and with UO-31 renal was above 100 µM in each case. The TGI in the assay with UACC-62 melanoma and in the assay on SNB-78 CNS was above 100 µM in each case.

As to `CC(C)OC(=O)c1ccc(CCC2=CC(=O)C=CC2=O)cc1`, the TGI with OVCAR-5 ovarian came to 29.4 µM; with T-47D breast, 4.45 µM; in the assay with SN12C renal it was 26.5 µM; in the assay on HS 578T breast, 50 µM; with MCF7 breast, 47.7 µM; in the assay with HCC-2998 colon, 32.6 µM. Besides, the TGI with SK-MEL-5 melanoma came out at 30 µM; in the assay with OVCAR-8 ovarian, 18.1 µM; in the assay on UO-31 renal, 14.2 µM; with UACC-62 melanoma, 28.8 µM.

With `CN(C)CCCc1cccc2[nH]c3c(c12)CN(C)CC3`, the TGI in the assay on OVCAR-5 ovarian, in the assay on T-47D breast, with SN12C renal, in the assay on HS 578T breast, in the assay on MCF7 breast and in the assay with HCC-2998 colon was above 100 µM throughout. For the same compound, the TGI in the assay on SK-MEL-5 melanoma, with OVCAR-8 ovarian, in the assay with UO-31 renal and in the assay on UACC-62 melanoma was above 100 µM in each case.

For `COc1ccc(N=NC(=O)NC(Cc2ccccc2)C(=O)O)cc1` (stereo unspecified), the TGI in the assay on OVCAR-5 ovarian, with T-47D breast, in the assay on SN12C renal, with HS 578T breast, in the assay with MCF7 breast and in the assay on HCC-2998 colon was above 100 µM each time. The TGI in the assay with SK-MEL-5 melanoma, in the assay with OVCAR-8 ovarian, with UO-31 renal and in the assay with UACC-62 melanoma was above 100 µM each time.
